{
  "source": "paper PMC10349806",
  "about": "(Nature Communications, 2023)",
  "assay_type_in_all_cases": "cell-based, Plasmodium falciparum",
  "key": {"PfCRT variant E207G": {"tested_on": "PfCRT variant E207G", "assay": "CQ uptake assay, oocytes expressing E207G", "description": "(§1) Site-directed mutagenesis of PfCRT^Dd2 was performed as described using the megaprimer method with overlap extension[21],[54]. The primer pairs used are listed in Supplementary Table 6. Please note that a codon-optimized and oocyte-adapted version of PfCRT^Dd2 was used[22] (Supplementary Fig. 16). The resulting DNA fragment was cloned into the SP64T expression vector and verified by sequencing.\n(§2) Oocytes were obtained as described previously. Briefly, adult (>2 years old) female X. laevis frogs (NASCO) were anesthetized in a cooled solution of ethyl 3-amino benzoate methanesulfonate (0.1%, w/v), followed by a surgical removal of parts of the ovary. The ovary lobes were carefully dissected and small pieces of oocytes were incubated in Ca^2+-free ND96 buffer (96 mM NaCl, 2 mM KCl, 1 mM MgCl2 buffered with 5 mM HEPES/NaOH, pH 7.5) supplemented with collagenase D (0.1%, w/v; Roche), BSA (0.5%, w/v), and 9 mm Na2HPO4 at 18 °C for 14-16 h while gentle shaking. After incubation, the oocytes were carefully washed several times with ND96 buffer (96 mM NaCl, 2 mM KCl, 1.8 mM CaCl2, 1 mM MgCl2 buffered with 5 mM HEPES/NaOH, pH 7.5) supplemented with 100 mg l^−1 gentamycin). Defolliculated and healthy-looking stage V-VI oocytes were manually selected for RNA microinjection. The RNA was generated as following: The codon-optimized sequences of PfCRT variants were cloned into the pSP64T expression vector. After vector linearization using the restriction endonucleases BamHI or SalI (New England Biolabs), transcription was performed using the in vitro SP6 mMessage mMachine Kit (Ambion)[34]. The obtained RNA was kept at −80 °C and diluted with nuclease-free water to a concentration of 0.6 μg μl^−1. Precision-bore glass capillary tubes (3.5-inch glass capillaries; Drummond Scientific Co.) were pulled on a vertical puller (P-87 Flaming/Brown micropipette puller, Sutter Instrument Co.), graduated, and placed on a microinjector (Nanoject II Auto-Nanoliter Injector, Drummond Scientific Co.). 50 nl of nuclease-free water alone (control oocytes) or 50 nl of 0.6 μg μl^−1 RNA were injected under stereomicroscopic control. Injected oocytes were incubated for 46–72 h at 18 °C with twice-daily buffer changes before usage in experiments.\n(§3) Drug uptake assays were performed as described previously[21],[22],[24],[34]. […] The direction of radio-labeled drug transport is here from the mostly acidic extracellular solution (pH 4.5 or 6.0, as indicated) into the oocyte cytosol (pH ∼ 7.2), which corresponds to the efflux of drug from the acidic digestive vacuole (pH 5.2) into the parasite cytoplasm (pH 7.2). The topology of PfCRT in the oolemma is such that both the N- and C-terminus face the extracellular milieu[3],[22]. In the parasite, the N- and C-terminus face the lumen of the digestive vacuole. CQ uptake kinetics were performed by incubating oocytes in ND96 buffer adjusted to a pH of 4.5, 5.0, 5.5, or 6.0 and supplemented with 50 nM [^3H]CQ and one of 7 different CQ concentrations (10 µM, 50 µM, 100 µM, 200 µM, 300 µM, 400 µM, 500 µM CQ). The reaction was stopped at the 60 min time point, which is in the linear uptake range[22],[34] (Supplementary Fig. 17). For determination of the amount of drug uptake for each oocyte, the reaction medium was removed and the oocytes were washed three times with 2 ml of ice-cold ND96 buffer. Each oocyte was individually transferred to a scintillation vial containing 5% sodium dodecyl sulfate (200 μl) for lysis. The radioactivity of each sample was measured using a liquid scintillation analyzer Tri-Carb 4910 TR (PerkinElmer). Oocytes that were injected with water instead of RNA were analyzed in parallel, representing the uptake of a drug by diffusion and/or endogenous permeation pathways. The resulting value represents the “background“ level of drug accumulation in oocytes (in-depth discussion in[22]). […]"}, "PfCRT variant Y177A": {"tested_on": "PfCRT variant Y177A", "assay": "CQ uptake assay, oocytes expressing Y177A", "description": "as §1, §2\nDrug uptake assays were performed as described previously[21],[22],[24],[34]. […] The direction of radio-labeled drug transport is here from the mostly acidic extracellular solution (pH 4.5 or 6.0, as indicated) into the oocyte cytosol (pH ∼ 7.2), which corresponds to the efflux of drug from the acidic digestive vacuole (pH 5.2) into the parasite cytoplasm (pH 7.2). The topology of PfCRT in the oolemma is such that both the N- and C-terminus face the extracellular milieu[3],[22]. In the parasite, the N- and C-terminus face the lumen of the digestive vacuole. CQ uptake kinetics were performed by incubating oocytes in ND96 buffer adjusted to a pH of 4.5, 5.0, 5.5, or 6.0 and supplemented with 50 nM [^3H]CQ and one of 7 different CQ concentrations (10 µM, 50 µM, 100 µM, 200 µM, 300 µM, 400 µM, 500 µM CQ). The reaction was stopped at the 60 min time point, which is in the linear uptake range[22],[34] (Supplementary Fig. 17). […] The radioactivity of each sample was measured using a liquid scintillation analyzer Tri-Carb 4910 TR (PerkinElmer). Oocytes that were injected with water instead of RNA were analyzed in parallel, representing the uptake of a drug by diffusion and/or endogenous permeation pathways. […]"}, "PfCRT variant E207P": {"tested_on": "PfCRT variant E207P", "assay": "CQ uptake assay, oocytes expressing E207P", "description": "as §1, §2, §3"}, "PfCRT variant E207Q": {"tested_on": "PfCRT variant E207Q", "assay": "CQ uptake assay, oocytes expressing E207Q", "description": "as §1, §2\nDrug uptake assays were performed as described previously[21],[22],[24],[34]. […] The direction of radio-labeled drug transport is here from the mostly acidic extracellular solution (pH 4.5 or 6.0, as indicated) into the oocyte cytosol (pH ∼ 7.2), which corresponds to the efflux of drug from the acidic digestive vacuole (pH 5.2) into the parasite cytoplasm (pH 7.2). The topology of PfCRT in the oolemma is such that both the N- and C-terminus face the extracellular milieu[3],[22]. In the parasite, the N- and C-terminus face the lumen of the digestive vacuole. […] For determination of the amount of drug uptake for each oocyte, the reaction medium was removed and the oocytes were washed three times with 2 ml of ice-cold ND96 buffer. Each oocyte was individually transferred to a scintillation vial containing 5% sodium dodecyl sulfate (200 μl) for lysis. […] Oocytes that were injected with water instead of RNA were analyzed in parallel, representing the uptake of a drug by diffusion and/or endogenous permeation pathways. […] The specific PfCRT-mediated uptake was determined by subtracting the corresponding background value measured in water-injected oocytes from that of PfCRT-expressing oocytes. […]"}, "[1]": {"details": "E207G, 50 µM CQ, 1 h, mean ± SEM"}, "[2]": {"details": "pH 4.5, individual replicates, Fig 6b"}, "[3]": {"details": "pH 6.0, individual replicates, Fig 6b"}, "[4]": {"details": "ratio of activity pH 4.5 / pH 6.0"}, "[5]": {"details": "Y177A, 50 µM CQ, 1 h, mean ± SEM"}, "[6]": {"details": "E207P, 50 µM CQ, 1 h, mean ± SEM"}},
  "note": "Where “and” joins values, the source holds several entries; their conditions need not be identical. Equal entries are not always repeated.",
  "data": [
    {"smiles": "CCN(CC)CCCC(C)Nc1ccnc2cc(Cl)ccc12", "note": "(stereo not shown) [CQ, chloroquine]", "values": [
      {"measurement": "Activity at pH 4.5", "setting": "PfCRT variant E207G; [1]", "value": "2.26 ± 0.46", "unit": "pmol h-1 oocyte-1"},
      {"measurement": "Activity at pH 6.0", "setting": "PfCRT variant E207G; [1]", "value": "2.55 ± 0.15", "unit": "pmol h-1 oocyte-1"},
      {"measurement": "R-value", "setting": "PfCRT variant E207G; E207G, CQ transport at pH 4.5 / pH 6.0", "value": "0.88 ± 0.06"},
      {"measurement": "E207G transport activity pH 4.5", "setting": "PfCRT variant E207G; [2]", "value": "2.31 pmol oocyte-1 h-1 and 2.79 pmol oocyte-1 h-1 and 1.67 pmol oocyte-1 h-1"},
      {"measurement": "E207G transport activity pH 6.0", "setting": "PfCRT variant E207G; [3]", "value": "2.70 pmol oocyte-1 h-1 and 2.76 pmol oocyte-1 h-1 and 2.19 pmol oocyte-1 h-1"},
      {"measurement": "E207G R-value", "setting": "PfCRT variant E207G; [4]", "value": "0.86 and 1.01 and 0.76"},
      {"measurement": "Activity at pH 4.5", "setting": "PfCRT variant Y177A; [5]", "value": "1.25 ± 0.21", "unit": "pmol h-1 oocyte-1"},
      {"measurement": "Activity at pH 6.0", "setting": "PfCRT variant Y177A; [5]", "value": "2.94 ± 0.26", "unit": "pmol h-1 oocyte-1"},
      {"measurement": "R-value", "setting": "PfCRT variant Y177A; Y177A, CQ transport at pH 4.5 / pH 6.0", "value": "0.44 ± 0.11"},
      {"measurement": "Y177A transport activity pH 4.5", "setting": "PfCRT variant Y177A; pH 4.5, single replicates, Fig 1d left", "value": "0.79 pmol oocyte-1 h-1 and 1.73 pmol oocyte-1 h-1 and 1.60 pmol oocyte-1 h-1 and 0.87 pmol oocyte-1 h-1"},
      {"measurement": "Y177A transport activity pH 6.0", "setting": "PfCRT variant Y177A; pH 6.0, single replicates, Fig 1d left", "value": "2.11 pmol oocyte-1 h-1 and 3.29 pmol oocyte-1 h-1 and 2.90 pmol oocyte-1 h-1 and 3.47 pmol oocyte-1 h-1"},
      {"measurement": "Activity at pH 4.5", "setting": "PfCRT variant E207P; [6]", "value": "2.31 ± 0.3", "unit": "pmol h-1 oocyte-1"},
      {"measurement": "Activity at pH 6.0", "setting": "PfCRT variant E207P; [6]", "value": "2.45 ± 0.21", "unit": "pmol h-1 oocyte-1"},
      {"measurement": "R-value", "setting": "PfCRT variant E207P; E207P, CQ transport at pH 4.5 / pH 6.0", "value": "0.93 ± 0.05"},
      {"measurement": "E207P transport activity pH 4.5", "setting": "PfCRT variant E207P; [2]", "value": "2.94 pmol oocyte-1 h-1 and 1.66 pmol oocyte-1 h-1 and 2.34 pmol oocyte-1 h-1"},
      {"measurement": "E207P transport activity pH 6.0", "setting": "PfCRT variant E207P; [3]", "value": "2.94 pmol oocyte-1 h-1 and 2.08 pmol oocyte-1 h-1 and 2.34 pmol oocyte-1 h-1"},
      {"measurement": "E207PR-value", "setting": "PfCRT variant E207P; [4]", "value": "1.00 and 0.80"},
      {"measurement": "Activity at pH 4.5", "setting": "PfCRT variant E207Q; E207Q, 50 µM CQ, 1 h, mean ± SEM", "value": "2.15 ± 0.52", "unit": "pmol h-1 oocyte-1"},
      {"measurement": "R-value", "setting": "PfCRT variant E207Q; E207Q, CQ transport at pH 4.5 / pH 6.0", "value": "0.88 ± 0.01"},
      {"measurement": "E207Q transport activity pH 4.5", "setting": "PfCRT variant E207Q; [2]", "value": "1.41 pmol oocyte-1 h-1 and 3.42 pmol oocyte-1 h-1 and 1.62 pmol oocyte-1 h-1"},
      {"measurement": "E207Q transport activity pH 6.0", "setting": "PfCRT variant E207Q; [3]", "value": "1.59 pmol oocyte-1 h-1 and 3.69 pmol oocyte-1 h-1 and 1.95 pmol oocyte-1 h-1"},
      {"measurement": "E207Q R-value", "setting": "PfCRT variant E207Q; [4]", "value": "0.89 and 0.93 and 0.83"}
    ]}
  ]
}
